From PMC2806030, “Inhibition of mammalian S6 kinase by resveratrol suppresses autophagy” (Aging (Albany NY), 2009)

Key:
[1] = target: T1, Pim-1 (Homo sapiens, UniProt P11309); experiment: in vitro kinase screen (Upstate KinaseProfiler), single dose […]; assay type: biochemical
T1 construct: gene PIM1

[2] = target: PAK4(h) (Homo sapiens, UniProt O96013); experiment: biochemical; design: Upstate KinaseProfiler in vitro kinase activity assay, per cent of DMSO control; conditions: read-out: Activity (% of Control)
Procedure, shortened: (§1)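 Profiling done with Upstate KinaseProfiler service across 100 kinases, resveratrol tested at 20 μM; activity expressed relative to control.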

[3] = target: T2, IKKß(h) (Homo sapiens, UniProt O14920); experiment: biochemical; design: Upstate KinaseProfiler in vitro kinase activity assay, per cent of DMSO control; conditions: read-out: Activity (% of Control)
T2 construct: gene IKBKB
T2 sequence (O14920 whole entry): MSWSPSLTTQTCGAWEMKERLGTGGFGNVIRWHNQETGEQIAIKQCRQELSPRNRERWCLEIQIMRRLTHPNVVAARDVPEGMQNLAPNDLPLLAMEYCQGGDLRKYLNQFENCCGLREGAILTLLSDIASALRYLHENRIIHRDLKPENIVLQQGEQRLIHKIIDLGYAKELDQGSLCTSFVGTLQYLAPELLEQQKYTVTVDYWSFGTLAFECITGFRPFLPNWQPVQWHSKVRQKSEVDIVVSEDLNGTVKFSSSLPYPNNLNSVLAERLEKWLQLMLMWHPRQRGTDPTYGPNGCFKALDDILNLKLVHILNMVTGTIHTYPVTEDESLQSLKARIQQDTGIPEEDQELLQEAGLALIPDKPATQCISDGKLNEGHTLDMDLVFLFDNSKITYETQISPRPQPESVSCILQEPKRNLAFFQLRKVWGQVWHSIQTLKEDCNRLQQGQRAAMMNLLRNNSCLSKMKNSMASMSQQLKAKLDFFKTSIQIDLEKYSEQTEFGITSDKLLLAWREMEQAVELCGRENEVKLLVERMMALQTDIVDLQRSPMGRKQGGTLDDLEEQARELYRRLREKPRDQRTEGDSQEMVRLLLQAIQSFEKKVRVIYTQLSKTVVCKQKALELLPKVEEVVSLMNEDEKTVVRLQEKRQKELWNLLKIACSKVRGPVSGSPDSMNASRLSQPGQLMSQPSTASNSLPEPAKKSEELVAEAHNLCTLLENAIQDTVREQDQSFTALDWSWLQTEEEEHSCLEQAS
Procedure, shortened: as §1

[4] = target: T3, LKB1(h) (Homo sapiens, UniProt Q15831); experiment: biochemical; design: Upstate KinaseProfiler in vitro kinase activity assay, per cent of DMSO control; conditions: read-out: Activity (% of Control)
T3 construct: gene STK11
T3 sequence (Q15831 whole entry): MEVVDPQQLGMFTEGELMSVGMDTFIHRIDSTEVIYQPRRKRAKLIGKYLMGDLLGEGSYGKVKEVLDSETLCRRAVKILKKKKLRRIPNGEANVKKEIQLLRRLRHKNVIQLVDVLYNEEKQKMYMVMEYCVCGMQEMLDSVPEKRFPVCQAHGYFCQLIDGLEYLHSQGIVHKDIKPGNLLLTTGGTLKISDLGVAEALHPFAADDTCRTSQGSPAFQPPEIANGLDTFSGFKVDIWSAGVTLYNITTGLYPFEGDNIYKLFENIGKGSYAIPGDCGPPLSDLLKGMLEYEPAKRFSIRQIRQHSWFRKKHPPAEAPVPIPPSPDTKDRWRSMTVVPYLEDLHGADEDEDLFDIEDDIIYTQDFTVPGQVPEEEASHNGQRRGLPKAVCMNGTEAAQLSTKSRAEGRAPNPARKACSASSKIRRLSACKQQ
T3 sequence (Q7RTN6 whole entry partner): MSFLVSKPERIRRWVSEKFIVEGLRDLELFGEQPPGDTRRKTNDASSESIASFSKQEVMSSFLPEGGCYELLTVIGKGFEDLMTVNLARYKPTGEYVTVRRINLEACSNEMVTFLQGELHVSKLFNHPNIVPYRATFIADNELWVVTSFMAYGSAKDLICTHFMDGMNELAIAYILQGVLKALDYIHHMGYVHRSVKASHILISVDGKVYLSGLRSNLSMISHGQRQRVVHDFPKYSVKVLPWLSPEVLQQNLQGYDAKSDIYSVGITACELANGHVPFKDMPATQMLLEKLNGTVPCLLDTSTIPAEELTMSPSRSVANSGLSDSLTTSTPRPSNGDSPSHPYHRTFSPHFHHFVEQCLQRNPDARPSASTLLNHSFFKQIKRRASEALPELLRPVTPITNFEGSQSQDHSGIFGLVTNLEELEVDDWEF
T3 sequence (Q9Y376 whole entry partner): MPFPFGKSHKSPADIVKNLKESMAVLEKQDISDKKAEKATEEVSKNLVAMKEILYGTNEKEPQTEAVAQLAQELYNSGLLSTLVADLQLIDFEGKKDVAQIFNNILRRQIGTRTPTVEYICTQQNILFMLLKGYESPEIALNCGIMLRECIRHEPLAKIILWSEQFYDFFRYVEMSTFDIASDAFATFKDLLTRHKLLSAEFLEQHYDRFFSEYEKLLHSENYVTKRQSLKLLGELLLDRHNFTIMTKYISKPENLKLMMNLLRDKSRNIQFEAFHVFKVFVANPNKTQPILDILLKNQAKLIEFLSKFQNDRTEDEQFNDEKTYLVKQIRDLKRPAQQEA
Procedure, shortened: as §1

[5] = target: T4, TAK1(h) (Homo sapiens, UniProt O43318); experiment: biochemical; design: Upstate KinaseProfiler in vitro kinase activity assay, per cent of DMSO control; conditions: read-out: Activity (% of Control)
T4 construct: gene MAP3K7
Procedure, shortened: as §1

[6] = target: T5, cKit(h) (Homo sapiens, UniProt P10721); experiment: biochemical; design: Upstate KinaseProfiler in vitro kinase activity assay, per cent of DMSO control; conditions: read-out: Activity (% of Control)
T5 construct: gene KIT
Procedure, shortened: as §1

[7] = target: CDK9/cyclin T1(h) (Homo sapiens, UniProt P50750); experiment: biochemical; design: Upstate KinaseProfiler in vitro kinase activity assay, per cent of DMSO control; conditions: read-out: Activity (% of Control)
Sequence of CDK9/cyclin T1(h) (P50750 whole entry): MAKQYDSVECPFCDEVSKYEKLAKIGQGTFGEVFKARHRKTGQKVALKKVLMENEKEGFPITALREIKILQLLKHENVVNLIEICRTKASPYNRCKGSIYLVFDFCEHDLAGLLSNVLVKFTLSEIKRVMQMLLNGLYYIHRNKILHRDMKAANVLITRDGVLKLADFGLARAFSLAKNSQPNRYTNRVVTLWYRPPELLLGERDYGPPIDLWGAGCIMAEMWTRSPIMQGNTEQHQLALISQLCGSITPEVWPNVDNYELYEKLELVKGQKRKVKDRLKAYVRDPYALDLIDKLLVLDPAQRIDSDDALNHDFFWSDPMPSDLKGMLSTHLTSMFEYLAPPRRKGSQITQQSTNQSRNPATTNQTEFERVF
Sequence of CDK9/cyclin T1(h) (O60563 whole entry partner): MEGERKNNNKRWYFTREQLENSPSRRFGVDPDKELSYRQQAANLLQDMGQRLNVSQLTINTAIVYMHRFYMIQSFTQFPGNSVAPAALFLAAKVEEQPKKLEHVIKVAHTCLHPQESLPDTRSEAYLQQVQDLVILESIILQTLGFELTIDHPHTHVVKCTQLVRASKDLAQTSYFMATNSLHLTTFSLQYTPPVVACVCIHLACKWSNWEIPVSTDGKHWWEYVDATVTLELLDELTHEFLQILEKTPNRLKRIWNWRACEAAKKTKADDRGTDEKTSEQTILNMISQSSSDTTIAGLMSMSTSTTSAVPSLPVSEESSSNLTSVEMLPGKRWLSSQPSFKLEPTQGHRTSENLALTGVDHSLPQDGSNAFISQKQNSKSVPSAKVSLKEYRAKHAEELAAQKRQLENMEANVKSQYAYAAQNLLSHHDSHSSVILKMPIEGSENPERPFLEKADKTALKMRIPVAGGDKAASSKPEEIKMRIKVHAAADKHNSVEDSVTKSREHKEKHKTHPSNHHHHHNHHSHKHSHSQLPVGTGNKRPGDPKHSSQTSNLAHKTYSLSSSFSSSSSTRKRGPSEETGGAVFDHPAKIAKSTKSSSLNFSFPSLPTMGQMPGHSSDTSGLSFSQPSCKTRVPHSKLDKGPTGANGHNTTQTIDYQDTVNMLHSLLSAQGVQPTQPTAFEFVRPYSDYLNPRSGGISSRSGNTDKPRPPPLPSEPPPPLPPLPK
Procedure, shortened: as §1

[8] = target: CDK7/cyclinH/MAT1(h) (Homo sapiens, UniProt P50613); experiment: biochemical; design: Upstate KinaseProfiler in vitro kinase activity assay, per cent of DMSO control; conditions: read-out: Activity (% of Control)
Sequence of CDK7/cyclinH/MAT1(h) (P50613 whole entry): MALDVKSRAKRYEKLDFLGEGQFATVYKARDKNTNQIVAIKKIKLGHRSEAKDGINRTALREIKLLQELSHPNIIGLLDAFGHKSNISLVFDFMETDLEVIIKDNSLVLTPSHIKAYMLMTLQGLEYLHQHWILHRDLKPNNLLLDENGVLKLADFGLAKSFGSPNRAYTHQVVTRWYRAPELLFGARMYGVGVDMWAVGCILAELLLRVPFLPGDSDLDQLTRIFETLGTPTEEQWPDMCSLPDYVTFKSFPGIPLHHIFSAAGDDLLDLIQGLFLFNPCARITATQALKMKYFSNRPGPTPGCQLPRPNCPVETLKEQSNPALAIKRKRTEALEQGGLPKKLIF
Sequence of CDK7/cyclinH/MAT1(h) (P51946 whole entry partner): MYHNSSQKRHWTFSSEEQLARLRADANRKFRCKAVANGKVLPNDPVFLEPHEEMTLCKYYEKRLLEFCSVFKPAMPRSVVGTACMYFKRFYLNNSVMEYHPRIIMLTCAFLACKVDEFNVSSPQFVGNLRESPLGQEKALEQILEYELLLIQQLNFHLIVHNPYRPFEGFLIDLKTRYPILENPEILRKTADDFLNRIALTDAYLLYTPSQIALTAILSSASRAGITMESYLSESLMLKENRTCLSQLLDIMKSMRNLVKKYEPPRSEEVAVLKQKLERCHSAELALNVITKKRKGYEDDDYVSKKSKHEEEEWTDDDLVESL
Sequence of CDK7/cyclinH/MAT1(h) (P51948 whole entry partner): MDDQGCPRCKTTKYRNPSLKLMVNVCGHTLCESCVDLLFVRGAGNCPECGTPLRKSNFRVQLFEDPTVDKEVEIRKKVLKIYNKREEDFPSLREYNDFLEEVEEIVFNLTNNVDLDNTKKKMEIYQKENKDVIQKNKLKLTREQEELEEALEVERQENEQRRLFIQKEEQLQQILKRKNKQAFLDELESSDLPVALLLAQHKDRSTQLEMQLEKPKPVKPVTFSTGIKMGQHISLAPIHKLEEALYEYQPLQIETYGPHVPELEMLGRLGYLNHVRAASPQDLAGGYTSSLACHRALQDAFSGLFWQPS
Procedure, shortened: as §1

[9] = target: NLK (Homo sapiens, UniProt Q9UBE8); experiment: in vitro kinase screen (Upstate KinaseProfiler), single dose […]; assay type: biochemical
Sequence of NLK (Q9UBE8 whole entry): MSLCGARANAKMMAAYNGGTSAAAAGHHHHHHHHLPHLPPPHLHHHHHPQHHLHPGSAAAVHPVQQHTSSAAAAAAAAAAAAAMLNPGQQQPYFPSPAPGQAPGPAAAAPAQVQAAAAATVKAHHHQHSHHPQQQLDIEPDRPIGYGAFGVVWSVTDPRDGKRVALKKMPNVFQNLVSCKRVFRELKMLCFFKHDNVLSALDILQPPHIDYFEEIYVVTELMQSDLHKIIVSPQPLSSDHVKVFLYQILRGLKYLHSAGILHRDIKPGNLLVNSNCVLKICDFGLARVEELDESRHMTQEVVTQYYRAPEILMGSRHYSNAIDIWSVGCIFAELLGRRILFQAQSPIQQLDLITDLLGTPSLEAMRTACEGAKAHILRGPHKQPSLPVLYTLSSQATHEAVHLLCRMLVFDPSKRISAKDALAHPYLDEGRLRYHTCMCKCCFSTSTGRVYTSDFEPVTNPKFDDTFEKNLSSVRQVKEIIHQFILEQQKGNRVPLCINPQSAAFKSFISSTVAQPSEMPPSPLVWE

[10] = target: T6, p70 S6 kinase (S6K1) (Rattus norvegicus, UniProt P67999); experiment: in vitro […] kinase assay with immunoprecipitated HA-S6K1 and GST-S6 substrate; also KinaseProfiler screen at […]; assay type: biochemical
T6 construct: gene Rps6kb1; HA-tagged S6K1 wt immunoprecipitated from HEK293 cells

T1 sequence (P11309 whole entry): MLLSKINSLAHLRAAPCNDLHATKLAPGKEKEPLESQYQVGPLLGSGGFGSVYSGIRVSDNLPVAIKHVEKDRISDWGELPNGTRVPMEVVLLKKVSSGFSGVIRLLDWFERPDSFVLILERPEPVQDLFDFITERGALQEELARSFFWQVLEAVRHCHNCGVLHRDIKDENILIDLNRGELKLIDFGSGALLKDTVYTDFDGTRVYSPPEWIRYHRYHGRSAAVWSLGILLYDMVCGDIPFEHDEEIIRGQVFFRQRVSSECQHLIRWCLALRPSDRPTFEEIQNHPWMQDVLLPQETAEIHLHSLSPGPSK

SMILES: Oc1ccc(/C=C/c2cc(O)cc(O)c2)cc1 [Res, resveratrol]
- in vitro kinase screen (Upstate KinaseProfiler), single dose 20 μM [1]: Jak2, NLK, p70 S6 kinase (S6K1), Pim-1, and Pim-2 emerged as potential targets of resveratrol
- remaining activity at 20 µM [2]: 103 ± 4%
- remaining activity at 20 µM [3]: 116 ± 2%
- remaining activity at 20 µM [4]: 102 ± 3%
- remaining activity at 20 µM [5]: 105 ± 3%
- remaining activity at 20 µM [6]: 68%
- remaining activity at 20 µM [7]: 70 ± 3%
- remaining activity at 20 µM [8]: 95 ± 1%
- in vitro kinase screen (Upstate KinaseProfiler), single dose 20 μM [9]: Jak2, NLK, p70 S6 kinase (S6K1), Pim-1, and Pim-2 emerged as potential targets of resveratrol
- IC50 [10]: ~25 µM
